Our source for the maximum recommended daily dose (mmol/kg-bw/day) values is PubChem BioAssay AID1195 (EPA DSSTox, 2008).

The data set has as its system human maximum recommended daily dose, FDA database. Put plainly: DSSTox (FDAMDD) FDA Maximum (Recommended) Daily Dose Database. The settings on record: stronger effect = lower value. The gist of the method:
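MRDD values come from clinical trials with daily oral dosing, usually for 3–12 months, for the average adult, in mg/day converted to mg/kg-bw/day assuming 60 kg. Antineoplastic mg/m2 doses are divided by 37. Activity score maps log10(1/MRDD mmol) onto 1–100.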

The mark [1] stands for this setting: TherapeuticCategory: anticonvulsant.
The mark [2] stands for this setting: TherapeuticCategory: anti inflammatory.
Where [3] appears, read: TherapeuticCategory: glucocorticoid.
[4] abbreviates: TherapeuticCategory: antibacterial.
The mark [5] stands for this setting: TherapeuticCategory: antihypertensive.
Where [6] appears, read: TherapeuticCategory: antidepressant.
[7] abbreviates: TherapeuticCategory: antihistaminic.

As to `CN1CC[C@]23c4c5ccc(O)c4O[C@H]2[C@@H](O)C=C[C@H]3[C@H]1C5`, under “TherapeuticCategory: narcotic analgesic”, the maximum recommended daily dose (mmol/kg-bw/day) is 0.00585. On to `NCC1(CC(=O)O)CCCCC1`, for which, under setting [1], the maximum recommended daily dose (mmol/kg-bw/day) is 0.117. With `C=CCN1C[C@H](C(=O)N(CCCN(C)C)C(=O)NCC)C[C@@H]2c3cccc4[nH]cc(c34)C[C@H]21`, the maximum recommended daily dose (mmol/kg-bw/day) (TherapeuticCategory: antidyskinetic, prolactin inhibitor, antiparkinsonian, dopamine receptor antagonist) was 4.43e-05. `OC[C@@]1(O)OC[C@@H](O)[C@@H](O)[C@@H]1O`: for the setting “TherapeuticCategory: fluid and nutrient replenisher, ferric form as hematinic”, the maximum recommended daily dose (mmol/kg-bw/day) is 2.31. Take `CC[C@@H](C(N)=O)N1CCCC1=O`: under setting [1], the maximum recommended daily dose (mmol/kg-bw/day) is 0.353. Consider `CC(=O)N(O)CCCCCNC(=O)CCC(=O)N(O)CCCCCNC(=O)CCC(=O)N(O)CCCCCN`, for which the maximum recommended daily dose (mmol/kg-bw/day) (TherapeuticCategory: parenteral chelating agent) was 0.178. In the case of `O=C(O)CCC(=O)c1ccc(-c2ccccc2)cc1`, the maximum recommended daily dose (mmol/kg-bw/day) under setting [2] is 0.059. Regarding `CC(C)NCC(O)COc1ccc(CCOCC2CC2)cc1` (stereo unspecified), for the setting “TherapeuticCategory: antihypertensive, antiglaucomic”, the maximum recommended daily dose (mmol/kg-bw/day) is 0.00217. With `C[C@H]1C[C@@H]2[C@H]([C@@H](O)C[C@@]3(C)[C@H]2CC[C@]3(O)C(=O)CO)[C@@]2(C)C=CC(=O)C=C12`, the maximum recommended daily dose (mmol/kg-bw/day) under setting [3] was 0.0111. Take `C[C@@H]1CN(c2c(F)c(N)c3c(=O)c(C(=O)O)cn(C4CC4)c3c2F)C[C@H](C)N1`: the maximum recommended daily dose (mmol/kg-bw/day) under setting [4] is 0.017. With `N=C(N)N1CCc2ccccc2C1`, the maximum recommended daily dose (mmol/kg-bw/day) under setting [5] is 0.0285. As for `COc1cc([C@@H]2Oc3cc([C@H]4Oc5cc(O)cc(O)c5C(=O)[C@@H]4O)ccc3O[C@H]2CO)ccc1O`, the maximum recommended daily dose (mmol/kg-bw/day) (TherapeuticCategory: treatment of liver disfunction) is 0.0145. In the case of `CCOC(=O)C1(c2ccccc2)CCCN(C)CC1` (stereo unspecified), the maximum recommended daily dose (mmol/kg-bw/day) (TherapeuticCategory: analgesic) was 0.0383.

As for `Cc1c(C(C)C)c(=O)n(-c2ccccc2)n1C`, the maximum recommended daily dose (mmol/kg-bw/day) (TherapeuticCategory: analgesic, antipyretic, antiphlogistic) was 0.13. `O=C(OC[C@H]1O[C@](O)(COC(=O)c2cccnc2)[C@@H](OC(=O)c2cccnc2)[C@@H]1OC(=O)c1cccnc1)c1cccnc1`: the maximum recommended daily dose (mmol/kg-bw/day) (TherapeuticCategory: peripheral vasodilator) is 0.111.

For `NCCS`, the maximum recommended daily dose (mmol/kg-bw/day) (TherapeuticCategory: antidote to acetaminophen) was 0.432.

With `CCOc1ccc2nc(S(N)(=O)=O)sc2c1`, the maximum recommended daily dose (mmol/kg-bw/day) (TherapeuticCategory: carbonic anhydrase inhibitor, diuretic) is 0.0322. On to `CCC1(c2ccccc2)C(=O)NC(=O)N(C)C1=O` (stereo unspecified), for which the maximum recommended daily dose (mmol/kg-bw/day) (TherapeuticCategory: anticonvulsant, sedative, hypnotic) is 0.0406. `CCn1cc(C(=O)O)c(=O)c2cnc(N3CCNCC3)nc21`: the maximum recommended daily dose (mmol/kg-bw/day) under setting [4] was 0.0438. Regarding `O=C(O)CCC(=O)c1ccc(C2CCCCC2)c(Cl)c1`, the maximum recommended daily dose (mmol/kg-bw/day) under setting [2] was 0.0678. As to `CN1CCN2c3ccccc3Cc3ccccc3C2C1` (stereo unspecified), the maximum recommended daily dose (mmol/kg-bw/day) under setting [6] was 0.00567. Turning to `C#C[C@]1(O)CC[C@H]2[C@@H]3CCc4cc(OC)ccc4[C@H]3CC[C@@]21C`, for the setting “TherapeuticCategory: estrogen”, the maximum recommended daily dose (mmol/kg-bw/day) was 2.67e-06. As to `CC1=C(CC(=O)O)c2cc(F)ccc2/C1=C/c1ccc(S(C)=O)cc1` (stereo unspecified), the maximum recommended daily dose (mmol/kg-bw/day) under setting [2] is 0.0187. With `CCO`, the maximum recommended daily dose (mmol/kg-bw/day) (TherapeuticCategory: topical antiseptic) was 2.17. `C[C@H]1C[C@H]2[C@@H]3CCC4=CC(=O)C=C[C@]4(C)[C@@]3(F)[C@@H](O)C[C@]2(C)[C@@]1(OC(=O)c1ccccc1)C(=O)CO`: the maximum recommended daily dose (mmol/kg-bw/day) under setting [3] was 0.000302. Regarding `CC(C)=CCC1C(=O)N(c2ccccc2)N(c2ccccc2)C1=O`, the maximum recommended daily dose (mmol/kg-bw/day) under setting [2] is 0.039. For the compound `CN(C)CC[C@@H](c1ccc(Br)cc1)c1ccccn1`, the maximum recommended daily dose (mmol/kg-bw/day) under setting [7] was 0.00251. `O=P1(N(CCCl)CCCl)NCCCO1` (stereo unspecified): under “TherapeuticCategory: antineoplastic”, the maximum recommended daily dose (mmol/kg-bw/day) is 0.0192.

With `CN(C)CCC(c1ccc(Cl)cc1)c1ccccn1` (stereo unspecified), under setting [7], the maximum recommended daily dose (mmol/kg-bw/day) is 0.000484. As to `CCCC[N+]1(C)[C@@H]2CC(OC(=O)[C@H](CO)c3ccccc3)C[C@H]1[C@@H]1O[C@@H]12` (stereo partly specified), for the setting “TherapeuticCategory: antispasmotic”, the maximum recommended daily dose (mmol/kg-bw/day) was 0.00302. Turning to `CNC(C)[C@@H]1CC[C@@H](N)[C@@H](O[C@H]2[C@H](O)[C@@H](O[C@H]3OC[C@](C)(O)[C@H](NC)[C@H]3O)[C@H](N)C[C@@H]2N)O1` (stereo partly specified), the maximum recommended daily dose (mmol/kg-bw/day) under setting [4] was 0.00628. In the case of `C=C1/C(=C/C=C2/CCC[C@]3(C)[C@@H]([C@H](C)CCCC(C)C)CC[C@@H]23)C[C@@H](O)C[C@@H]1O`, the maximum recommended daily dose (mmol/kg-bw/day) (TherapeuticCategory: vitamin D source) was 7.49e-06.

As to `NCCc1cnc[nH]1`, where the note is “TherapeuticCategory: gastrointestinal”, the maximum recommended daily dose (mmol/kg-bw/day) was 0.00013. Regarding `Cc1ccc2c(-c3ccccc3)nc(=O)n(C(C)C)c2c1`, the maximum recommended daily dose (mmol/kg-bw/day) under setting [2] was 0.0719. As to `NC(=O)OCC(COC(N)=O)c1ccccc1`, the maximum recommended daily dose (mmol/kg-bw/day) under setting [1] was 0.252. In the case of `O=C(O)Cc1ccccc1Nc1c(Cl)cccc1Cl`, the maximum recommended daily dose (mmol/kg-bw/day) under setting [2] was 0.0127. As for `CNS(=O)(=O)CCc1ccc2[nH]cc(C3CCN(C)CC3)c2c1`, the maximum recommended daily dose (mmol/kg-bw/day) (TherapeuticCategory: antimigraine, vasoconstrictor) is 0.000248. Regarding `CN[C@@H]1[C@H](O[C@H]2[C@H](O[C@H]3[C@H](O)[C@@H](O)[C@H](N=C(N)N)[C@@H](O)[C@@H]3N=C(N)N)O[C@@H](C)[C@]2(O)C=O)O[C@@H](CO)[C@H](O)[C@H]1O`, under setting [4], the maximum recommended daily dose (mmol/kg-bw/day) is 0.0344.

Regarding `O=C(Cc1cccs1)N[C@@H]1C(=O)N2C(C(=O)[O-])=C(C[n+]3ccccc3)CS[C@H]12`, the maximum recommended daily dose (mmol/kg-bw/day) under setting [4] is 0.161.

With `C#C[C@]1(O)CC[C@H]2[C@@H]3CCC4=C(CCC(=O)C4)[C@H]3CC[C@@]21C`, the maximum recommended daily dose (mmol/kg-bw/day) (TherapeuticCategory: progestogen) was 0.00224. Regarding `CC(C)[N+](C)(CCOC(=O)C1c2ccccc2Oc2ccccc21)C(C)C`, the maximum recommended daily dose (mmol/kg-bw/day) (TherapeuticCategory: anticholinergic) was 0.00279.

In the case of `C[C@H]1O[C@@H](O[C@H]2[C@@H](O)C[C@H](O[C@H]3[C@@H](O)C[C@H](O[C@H]4CC[C@@]5(C)[C@H](CC[C@@H]6[C@@H]5C[C@@H](O)[C@]5(C)[C@@H](C7=CC(=O)OC7)CC[C@]65O)C4)O[C@@H]3C)O[C@@H]2C)C[C@H](O)[C@@H]1O`, the maximum recommended daily dose (mmol/kg-bw/day) (TherapeuticCategory: cardiotonic) was 1.28e-08. In the case of `CCOc1nc2cccc(C(=O)O)c2n1Cc1ccc(-c2ccccc2-c2nn[nH]n2)cc1`, under setting [5], the maximum recommended daily dose (mmol/kg-bw/day) was 0.000606. For `C[C@H]1CCC[C@H](O)CCCCCc2cc(O)cc(O)c2C(=O)O1`, the maximum recommended daily dose (mmol/kg-bw/day) (TherapeuticCategory: anabolic) was 1.55e-06. For the compound `CN(C)CCn1nnnc1SCC1=C(C(=O)O)N2C(=O)[C@@H](NC(=O)Cc3csc(N)n3)[C@H]2SC1`, under setting [4], the maximum recommended daily dose (mmol/kg-bw/day) is 0.19. For `CC(CN(C)C)C(C)(O)Cc1ccc(Cl)cc1` (stereo unspecified), the maximum recommended daily dose (mmol/kg-bw/day) (TherapeuticCategory: antitussive) was 0.0156. Consider `CCC1(CC)C(=O)NC(=O)NC1=O`, for which the maximum recommended daily dose (mmol/kg-bw/day) (TherapeuticCategory: sedative, hypnotic) is 0.0543. Take `CC(C(=O)O)c1ccc2oc(-c3ccc(Cl)cc3)nc2c1` (stereo unspecified): for the setting “TherapeuticCategory: analgesic, anti inflammatory”, the maximum recommended daily dose (mmol/kg-bw/day) was 0.0331. In the case of `CC(COc1ccccc1)NC(C)C(O)c1ccc(O)cc1` (stereo unspecified), for the setting “TherapeuticCategory: vasodilator”, the maximum recommended daily dose (mmol/kg-bw/day) was 0.00441. `Cc1ccc(C)c(OCCCC(C)(C)C(=O)O)c1`: the maximum recommended daily dose (mmol/kg-bw/day) (TherapeuticCategory: antihyperlipoproteinemic) is 0.0799. For `N[C@@H](C(=O)N[C@@H]1C(=O)N2C(C(=O)O)=C(Cl)CS[C@H]12)c1ccccc1`, the maximum recommended daily dose (mmol/kg-bw/day) under setting [4] is 0.068. Take `CN1CCCC(n2nc(Cc3ccc(Cl)cc3)c3ccccc3c2=O)CC1` (stereo unspecified): the maximum recommended daily dose (mmol/kg-bw/day) (TherapeuticCategory: antiallergic, antiasthmatic, antihistaminic) is 0.000348.

As to `NCCC(O)(P(=O)(O)O)P(=O)(O)O`, the maximum recommended daily dose (mmol/kg-bw/day) (TherapeuticCategory: antipagetic) is 0.00638. For `O=C1OC(c2ccc(O)c(S(=O)(=O)O)c2)(c2ccc(O)c(S(=O)(=O)O)c2)c2c(Br)c(Br)c(Br)c(Br)c21`, the maximum recommended daily dose (mmol/kg-bw/day) (TherapeuticCategory: diagnostic aid) is 0.00597. `NC(=O)NNc1ccccc1`: the maximum recommended daily dose (mmol/kg-bw/day) (TherapeuticCategory: antipyretic) was 0.165. For the compound `c1ccc(CC2=NCCN2)cc1`, the maximum recommended daily dose (mmol/kg-bw/day) (TherapeuticCategory: antiadrenergic) is 0.0125. Regarding `CCOC(=O)[C@H](CCc1ccccc1)N[C@@H](C)C(=O)N1[C@H](C(=O)O)C[C@H]2CCCC[C@@H]21`, the maximum recommended daily dose (mmol/kg-bw/day) under setting [5] was 0.00124. As to `CCCCc1oc2ccccc2c1C(=O)c1cc(I)c(OCCN(CC)CC)c(I)c1`, where the note is “TherapeuticCategory: antiarrhythmic, antianginal”, the maximum recommended daily dose (mmol/kg-bw/day) was 0.0414. With `CNCCC=C1c2ccccc2CCc2ccccc21`, the maximum recommended daily dose (mmol/kg-bw/day) under setting [6] was 0.00634. In the case of `C[C@]12C=CC(=O)C=C1CC[C@@H]1[C@@H]2[C@@H](O)C[C@@]2(C)[C@H]1CC[C@]2(O)C(=O)COC(=O)CCC(=O)O`, the maximum recommended daily dose (mmol/kg-bw/day) under setting [3] was 0.0069.

As for `CC(CC1c2ccccc2CCc2ccccc21)CN(C)C` (stereo unspecified), the maximum recommended daily dose (mmol/kg-bw/day) under setting [6] was 0.00852. Take `CCOC(=O)c1ccc(N)cc1`: the maximum recommended daily dose (mmol/kg-bw/day) (TherapeuticCategory: topical anesthetic) was 0.00726. In the case of `CCCC(=O)O[C@H]1[C@H](C)O[C@@H](O[C@H]2[C@H](N(C)C)[C@@H](O)[C@H](O[C@H]3[C@@H](CC=O)C[C@@H](C)[C@@H](O)/C=C/C=C/C[C@@H](C)OC(=O)C[C@@H](O)[C@@H]3OC)O[C@@H]2C)C[C@@]1(C)OC(=O)CC`, under setting [4], the maximum recommended daily dose (mmol/kg-bw/day) was 0.0242.

As to `CN[C@@H](C)[C@@H](O)c1ccccc1`, the maximum recommended daily dose (mmol/kg-bw/day) (TherapeuticCategory: l-form as bronchodilator, d-form as decongestant) is 0.0242.

For `O=C1CN=C(c2ccccc2)c2cc(Cl)ccc2N1CC(F)(F)F`, for the setting “TherapeuticCategory: anxiolytic”, the maximum recommended daily dose (mmol/kg-bw/day) was 0.00757. `NC(=O)c1cccnc1`: the maximum recommended daily dose (mmol/kg-bw/day) (TherapeuticCategory: vitamin) was 0.0682.
